Among the test systems are A498; OVCAR-4; RXF 393; SK-MEL-28; SR; Malme-3M; MDA-MB-231; TK-10; SK-OV-3; HT-29; OVCAR-3; HL-60; K562; HCT-116; OVCAR-8; UACC-257; Hs-578T; OVCAR-5; HCT-15; T47D.
Assay in all cases: NCI tumour cell line growth inhibition, 48 h

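How tested: cells in 96-well plates exposed to compound for 48 hours at five concentrations. GI50 = concentration required for 50% inhibition of growth.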 Active and inactive are the calls of the source. Rule as the data show it: active = GI50 up to about 1.1 µM and inactive = higher. Where only a bound is given, the exact number is not on record here.

With `CCCCS(=O)(=O)CCC(N)C(=O)O` (stereo not given), the GI50 is > 100 µM (inactive) in the assay with A498; > 100 µM (inactive) in the assay with OVCAR-4; 36.1 µM (inactive) in the assay on RXF 393; > 100 µM (inactive) in the assay on SK-MEL-28; > 100 µM (inactive) in the assay with SR; > 100 µM (inactive) in the assay with Malme-3M. Also, the GI50 with MDA-MB-231, in the assay with TK-10, with SK-OV-3, in the assay on HT-29, in the assay with OVCAR-3 and with HL-60 was > 100 µM (inactive) in each case. In addition, the GI50 in the assay with K562, in the assay with HCT-116, in the assay on OVCAR-8, in the assay on UACC-257, with Hs-578T and with OVCAR-5 was > 100 µM (inactive) throughout. Further, the GI50 in the assay with HCT-15 was more than 100 µM; with T47D, > 100 µM (inactive).

As to `O=C(O)c1nnsc1-c1ccc(-c2snnc2C(=O)O)cc1`, the GI50 in the assay with A498 is > 100 µM (inactive); in the assay on OVCAR-4 it was 29.6 µM (inactive); in the assay with RXF 393 it was > 100 µM (inactive); in the assay on SK-MEL-28, > 100 µM (inactive); in the assay on SR, 10.5 µM (inactive); in the assay on Malme-3M, 56.8 µM (inactive). The GI50 with MDA-MB-231 is > 100 µM (inactive); in the assay on TK-10, > 100 µM (inactive); in the assay on SK-OV-3, > 100 µM (inactive); in the assay on HT-29, > 100 µM (inactive); in the assay on OVCAR-3, 91.2 µM (inactive); in the assay with HL-60, 37.7 µM (inactive). Besides, the GI50 is 28.5 µM (inactive) with K562; > 100 µM (inactive) in the assay with HCT-116; > 100 µM (inactive) with OVCAR-8; > 100 µM (inactive) with UACC-257; > 100 µM (inactive) in the assay with Hs-578T; > 100 µM (inactive) in the assay on OVCAR-5. The GI50 is 42 µM in the assay with HCT-15 and > 100 µM (inactive) in the assay on T47D.

For the molecule `Cc1nn(-c2cc(Cl)ccc2[N+](=O)[O-])c(C)c1Cl`, the GI50 in the assay with A498 was > 100 µM (inactive); in the assay with OVCAR-4 it was > 100 µM (inactive); with RXF 393, 2.72 µM (inactive); in the assay on SK-MEL-28 it was > 100 µM (inactive); in the assay with SR, > 100 µM (inactive); in the assay on Malme-3M it was > 100 µM (inactive). In addition, the GI50 with MDA-MB-231 was 48 µM (inactive); with TK-10, > 100 µM (inactive); in the assay on SK-OV-3 it was > 100 µM (inactive); in the assay on HT-29 it was > 100 µM (inactive); with OVCAR-3 it was > 100 µM (inactive); in the assay on HL-60, 91.8 µM (inactive). Further, the GI50 in the assay on K562 is 20.3 µM (inactive); in the assay on HCT-116 it was 53.8 µM (inactive); with OVCAR-8, > 100 µM (inactive); in the assay on UACC-257, > 100 µM (inactive); in the assay with Hs-578T, > 100 µM (inactive); in the assay with OVCAR-5, > 100 µM (inactive). Besides, the values for the GI50 in the assay on HCT-15 and with T47D were 40.6 µM and 38.2 µM (inactive), respectively.

On to `Nc1cc2c3c(cccc3c1)C(=O)N(c1ccc(OCCN3CCCCC3)cc1)C2=O`, for which the GI50 in the assay on A498 is 16 µM (inactive); in the assay on OVCAR-4 it was 17.1 µM (inactive); in the assay with RXF 393, 16.7 µM (inactive); with SK-MEL-28 it was 22.2 µM (inactive); in the assay on SR it was 14 µM (inactive); in the assay on Malme-3M, 14.5 µM (inactive). The GI50 with MDA-MB-231 was 14.2 µM (inactive); with TK-10 it was 16.5 µM (inactive); in the assay with SK-OV-3, 15.1 µM (inactive); with HT-29 it was 10.2 µM (inactive); in the assay on OVCAR-3, 16.7 µM (inactive); in the assay with HL-60, 4.89 µM (inactive). The GI50 with K562 is 12.1 µM (inactive); in the assay on HCT-116, 11.3 µM (inactive); in the assay on OVCAR-8, 16.1 µM (inactive); in the assay with UACC-257, 16 µM (inactive); in the assay on Hs-578T, 27.7 µM (inactive); with OVCAR-5 it was 20.8 µM (inactive). Further, the GI50 was 12.7 µM with HCT-15 and 20.4 µM (inactive) in the assay with T47D.

For `O=C(NNC(=S)NC1CCCCC1)C12CC3CC(CC(C3)C1)C2`, the GI50 with A498 is > 100 µM (inactive); in the assay on OVCAR-4, > 100 µM (inactive); in the assay on RXF 393 it was > 100 µM (inactive); in the assay with SK-MEL-28, > 100 µM (inactive); with SR, 0.637 µM (active); in the assay on Malme-3M it was > 100 µM (inactive). The GI50 in the assay with MDA-MB-231, in the assay with TK-10, in the assay on SK-OV-3, with HT-29, in the assay with OVCAR-3 and in the assay on HL-60 was > 100 µM (inactive) throughout. The GI50 in the assay with K562, in the assay on HCT-116, with OVCAR-8, in the assay with UACC-257, in the assay with Hs-578T and in the assay on OVCAR-5 was > 100 µM (inactive) throughout. The figures for the GI50 in the assay on HCT-15 and in the assay with T47D were more than 100 µM and > 100 µM (inactive), respectively.

As to `CCOC(=O)c1sc2nc(SC)nc3c2c1NCN3c1ccc2c(c1)OCO2`, the GI50 is 33.3 µM (inactive) in the assay with A498; 5.2 µM (inactive) in the assay with OVCAR-4; 3.14 µM (inactive) in the assay with RXF 393; 8.04 µM (inactive) with SK-MEL-28; 39.3 µM (inactive) in the assay on SR; 17.9 µM (inactive) in the assay with Malme-3M. Further, the GI50 is 13.4 µM (inactive) with MDA-MB-231; 17.2 µM (inactive) in the assay on TK-10; 10.7 µM (inactive) in the assay on SK-OV-3; 31.3 µM (inactive) in the assay with HT-29; 10.8 µM (inactive) in the assay on OVCAR-3; 52 µM (inactive) in the assay on HL-60. In addition, the GI50 was 35 µM (inactive) in the assay on K562; 27.5 µM (inactive) in the assay on HCT-116; 5.41 µM (inactive) with OVCAR-8; > 100 µM (inactive) with UACC-257; 3.58 µM (inactive) in the assay with Hs-578T; 97.5 µM (inactive) in the assay with OVCAR-5. In addition, the GI50 was 52.5 µM with HCT-15 and 18.9 µM (inactive) in the assay on T47D.

Regarding `C=C1N(S(=O)(=O)c2ccc(C)cc2)C(=O)OCC12CCCC2`, the GI50 was > 100 µM (inactive) with A498; 72.6 µM (inactive) with OVCAR-4; > 100 µM (inactive) with RXF 393; > 100 µM (inactive) in the assay with SK-MEL-28; 45.7 µM (inactive) in the assay on SR; > 100 µM (inactive) in the assay with Malme-3M. In addition, the GI50 with MDA-MB-231 is > 100 µM (inactive); in the assay on TK-10 it was > 100 µM (inactive); in the assay with SK-OV-3, 41.4 µM (inactive); with HT-29 it was 54.7 µM (inactive); in the assay with OVCAR-3, 52.4 µM (inactive); with HL-60 it was 40.3 µM (inactive). For the same molecule, the GI50 is 94.2 µM (inactive) with K562; 55.3 µM (inactive) in the assay with HCT-116; > 100 µM (inactive) with OVCAR-8; 80.4 µM (inactive) with UACC-257; 32.5 µM (inactive) with Hs-578T; > 100 µM (inactive) in the assay with OVCAR-5. In addition, the GI50 in the assay on HCT-15 is 94 µM; with T47D, 27.2 µM (inactive).

For `C=C1C(=O)O[C@H]2[C@@H]3O[C@@](C)(CC/C=C(\C)CCC[C@@H]2C)[C@H](O)C[C@@H]13`, the GI50 in the assay with A498 was 25.1 µM (inactive); in the assay on OVCAR-4, 7.18 µM (inactive); in the assay on RXF 393, 3.94 µM (inactive); with SK-MEL-28, 7.31 µM (inactive); with SR it was 3.16 µM (inactive); in the assay on Malme-3M, 6.32 µM (inactive). The GI50 in the assay on MDA-MB-231 is 5.3 µM (inactive); in the assay with TK-10 it was 4.81 µM (inactive); in the assay with SK-OV-3, 17.6 µM (inactive); in the assay with HT-29 it was 1.38 µM (inactive); in the assay on OVCAR-3, 2.59 µM (inactive); with HL-60 it was 2.34 µM (inactive). Further, the GI50 was 1.25 µM (inactive) in the assay on K562; 3.66 µM (inactive) in the assay on HCT-116; 3.15 µM (inactive) in the assay on OVCAR-8; 10 µM (inactive) with UACC-257; 3.29 µM (inactive) with Hs-578T; 13.2 µM (inactive) with OVCAR-5. In addition, the GI50 with HCT-15 is 2.56 µM; in the assay with T47D it was 3.58 µM (inactive).

`Cc1ccccc1OC(C)C(=O)NN1C(=O)CC(=O)N(c2ccc(Cl)cc2)C1=S` (stereo not given): the GI50 was 20.7 µM (inactive) in the assay with A498; 38.5 µM (inactive) in the assay on OVCAR-4; 25 µM (inactive) in the assay on RXF 393; 41.4 µM (inactive) in the assay with SK-MEL-28; 26 µM (inactive) in the assay on SR; 48.2 µM (inactive) in the assay on Malme-3M. Further, the GI50 in the assay on MDA-MB-231 is 26 µM (inactive); in the assay with TK-10, 44 µM (inactive); in the assay on SK-OV-3, 48.2 µM (inactive); with HT-29, 39.5 µM (inactive); in the assay on OVCAR-3, 37.1 µM (inactive); in the assay on HL-60, 13.4 µM (inactive). Also, the GI50 in the assay on K562 is 38.6 µM (inactive); with HCT-116, 22.2 µM (inactive); in the assay with OVCAR-8 it was 34.1 µM (inactive); in the assay with UACC-257, 30 µM (inactive); in the assay with Hs-578T it was 63.2 µM (inactive); in the assay with OVCAR-5, 61.2 µM (inactive). Moreover, the GI50 with HCT-15 is 30.1 µM; in the assay on T47D, 34.6 µM (inactive).

In the case of `O=C1OC(c2ccc([N+](=O)[O-])cc2)=N/C1=C\c1ccc(Cl)cc1`, the GI50 in the assay on A498 was > 100 µM (inactive); in the assay on OVCAR-4 it was > 100 µM (inactive); in the assay with RXF 393, 62.8 µM (inactive); with SK-MEL-28, > 100 µM (inactive); in the assay on SR, > 100 µM (inactive); in the assay with Malme-3M it was > 100 µM (inactive). Moreover, the GI50 with MDA-MB-231, with TK-10, with SK-OV-3, in the assay with HT-29, in the assay on OVCAR-3 and in the assay with HL-60 was > 100 µM (inactive) each time. Besides, the GI50 was > 100 µM (inactive) in the assay with K562; > 100 µM (inactive) with HCT-116; > 100 µM (inactive) in the assay with OVCAR-8; > 100 µM (inactive) in the assay with UACC-257; > 100 µM (inactive) with Hs-578T; 85.1 µM (inactive) in the assay on OVCAR-5. Also, the figures for the GI50 in the assay on HCT-15 and in the assay with T47D were more than 100 µM and > 100 µM (inactive), respectively.

(Values after ChEMBL document CHEMBL1201862, “PubChem BioAssay data set” (2004).)
